In ChEMBL document CHEMBL3822383, “Coumarin sulfonamides derivatives as potent and selective COX-2 inhibitors with efficacy in suppressing cancer proliferation and metastasis” (Bioorg Med Chem Lett, 2016):
Active and inactive are the calls of the source. The rule behind the calls is not given here.

Legend:
[1] = test system: A549; assay: cells; settings: Homo sapiens, A549, 24 h
Description: Antiproliferative activity against human A549 cells after 24 hrs by MTT assay

[2] = molecular target: Prostaglandin G/H synthase 1 (Homo sapiens, UniProt P23219); assay: Inhibition of human COX1 using arachidonic acid assessed as production of PGF2alpha after 5 mins by ELISA
Prostaglandin G/H synthase 1, sequence (P23219 whole entry): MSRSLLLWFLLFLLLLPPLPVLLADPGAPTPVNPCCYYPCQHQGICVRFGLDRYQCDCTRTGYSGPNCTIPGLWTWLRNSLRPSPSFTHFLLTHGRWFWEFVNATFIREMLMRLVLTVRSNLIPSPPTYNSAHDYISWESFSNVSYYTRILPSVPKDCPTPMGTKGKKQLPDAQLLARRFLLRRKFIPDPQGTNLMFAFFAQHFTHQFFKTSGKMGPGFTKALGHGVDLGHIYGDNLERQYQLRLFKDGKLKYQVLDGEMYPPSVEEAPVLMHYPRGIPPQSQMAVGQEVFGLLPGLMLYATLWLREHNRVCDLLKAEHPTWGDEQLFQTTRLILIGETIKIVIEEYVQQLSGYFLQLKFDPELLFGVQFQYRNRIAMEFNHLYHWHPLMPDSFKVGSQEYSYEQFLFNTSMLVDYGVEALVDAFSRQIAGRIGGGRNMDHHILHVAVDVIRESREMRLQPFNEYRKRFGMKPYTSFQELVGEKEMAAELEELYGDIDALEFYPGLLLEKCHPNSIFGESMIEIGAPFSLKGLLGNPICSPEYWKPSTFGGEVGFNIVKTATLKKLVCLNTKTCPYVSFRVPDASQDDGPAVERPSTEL

[3] = cells; settings: Homo sapiens, L02, 24 h
Description: Antiproliferative activity against human LO2 cells after 24 hrs by MTT assay

[4] = cells; settings: Mus musculus, B16-F10, 24 h
Description: Antiproliferative activity against mouse B16F10 cells after 24 hrs by MTT assay

[5] = test system: HeLa; assay: cells; settings: Homo sapiens, 24 h
Description: Antiproliferative activity against human HeLa cells after 24 hrs by MTT assay

[6] = test system: HepG2; assay: cells; settings: Homo sapiens, HepG2, 24 h
Description: Antiproliferative activity against human HepG2 cells after 24 hrs by MTT assay

[7] = cells; settings: Homo sapiens, HEK-293T, 24 h
Description: Antiproliferative activity against human 293T cells after 24 hrs by MTT assay

[8] = test system: HeLa; assay: Inhibition of cell adhesion in human HeLa cells assessed as reduction in cell attachment up to 8 uM after 1 hr by MTT assay; type: functional, cell-based
[9] = test system: HeLa; assay: Inhibition of PGE2 secretion in human HeLa cells at 0.1 uM after 24 hrs by EIA monoclonal assay; type: functional, cell-based

IC50 [1] | IC50 [2] | IC50 [4] | IC50 [5] | IC50 [6] | IC50 [7] | Structure (SMILES) | IC50 [3] | inhibition [8] | inhibition [9]
3.85 µM | 42.2 µM | 4.04 µM | 0.52 µM | 1.63 µM | 113 µM | NS(=O)(=O)c1ccc(-n2nc(C(=O)N/N=C/c3c(Cl)c4ccccc4oc3=O)cc2-c2ccc([N+](=O)[O-])cc2)cc1 | 133 µM | – | –
26.1 µM | 49.8 µM | 26.2 µM | 16.2 µM | 20 µM | 101 µM | COc1cc(-c2cc(C(=O)N/N=C/c3c(Cl)c4ccccc4oc3=O)nn2-c2ccc(S(N)(=O)=O)cc2)cc(OC)c1OC | 116 µM | – | –
24.2 µM | > 100 µM | 6.93 µM | 6.92 µM | 4.41 µM | 233 µM | Cc1ccc(-c2cc(C(=O)N/N=C/c3c(Cl)c4ccccc4oc3=O)nn2-c2ccc(S(N)(=O)=O)cc2)cc1C | > 300 µM | – | –
11.2 µM | 53.4 µM | 9.76 µM | 0.94 µM | 3.53 µM | 181 µM | NS(=O)(=O)c1ccc(-n2nc(C(=O)N/N=C/c3c(Cl)c4ccccc4oc3=O)cc2-c2ccc(F)cc2)cc1 | 192 µM | – | –
22.1 µM | 89.5 µM | 6.22 µM | 8.81 µM | 11.3 µM | 189 µM | Cc1ccc(-c2cc(C(=O)N/N=C/c3c(Cl)c4ccccc4oc3=O)nn2-c2ccc(S(N)(=O)=O)cc2)cc1 | > 300 µM | – | –
33.5 µM | > 100 µM | 9.53 µM | 9.86 µM | 5.76 µM | 180 µM | NS(=O)(=O)c1ccc(-n2nc(C(=O)N/N=C/c3c(Cl)c4ccccc4oc3=O)cc2-c2ccccc2)cc1 | 183 µM | – | –
16.2 µM | 74.3 µM | 8.79 µM | 3.43 µM | 4.74 µM | 155 µM | NS(=O)(=O)c1ccc(-n2nc(C(=O)N/N=C/c3c(Cl)c4ccccc4oc3=O)cc2-c2cccc(F)c2)cc1 | 206 µM | – | –
12.3 µM | 86.2 µM | 9.12 µM | 5.09 µM | 6.1 µM | 254 µM | NS(=O)(=O)c1ccc(-n2nc(C(=O)N/N=C/c3c(Cl)c4ccccc4oc3=O)cc2-c2ccccc2Cl)cc1 | 214 µM | – | –
31.5 µM | 84.3 µM | 7.31 µM | 12 µM | 14.7 µM | > 300 µM | COc1ccc(-c2cc(C(=O)N/N=C/c3c(Cl)c4ccccc4oc3=O)nn2-c2ccc(S(N)(=O)=O)cc2)cc1 | > 300 µM | – | –
28.5 µM | 39.5 µM | 4.68 µM | 7.95 µM | 6.7 µM | 175 µM | Cc1ccc(-c2cc(C(=O)N/N=C/c3c(Cl)c4ccccc4oc3=O)nn2-c2ccc(S(N)(=O)=O)cc2)c(C)c1 | 206 µM | – | –
14.7 µM | > 100 µM | 15.6 µM | 5.46 µM | 6.75 µM | 152 µM | NS(=O)(=O)c1ccc(-n2nc(C(=O)N/N=C/c3c(Cl)c4ccccc4oc3=O)cc2-c2cccc(Cl)c2)cc1 | 168 µM | – | –
40.1 µM | 69.3 µM | 19.8 µM | 13.1 µM | 21.2 µM | 175 µM | COc1ccc(-c2cc(C(=O)N/N=C/c3c(Cl)c4ccccc4oc3=O)nn2-c2ccc(S(N)(=O)=O)cc2)cc1OC | 187 µM | – | –
17.2 µM | > 100 µM | 20.9 µM | 11.7 µM | 19.9 µM | > 300 µM | NS(=O)(=O)c1ccc(-n2nc(C(=O)N/N=C/c3c(Cl)c4ccccc4oc3=O)cc2-c2ccccc2O)cc1 | 159 µM | – | –
15.6 µM | – | 14.4 µM | 7.79 µM | 10 µM | 95.3 µM | Cc1ccc(-c2cc(C(F)(F)F)nn2-c2ccc(S(N)(=O)=O)cc2)cc1 [CELECOXIB] | 98.2 µM | inactive | Active
– | 78.5 µM | – | – | – | – | CCOc1ccc(-c2cc(C(=O)N/N=C/c3c(Cl)c4ccccc4oc3=O)nn2-c2ccc(S(N)(=O)=O)cc2)cc1 | – | – | –
23.5 µM | 96.6 µM | 7.45 µM | 4.91 µM | 5.12 µM | 153 µM | NS(=O)(=O)c1ccc(-n2nc(C(=O)N/N=C/c3c(Cl)c4ccccc4oc3=O)cc2-c2ccc(Cl)c(Cl)c2)cc1 | > 300 µM | – | –
20.3 µM | 48.2 µM | 5.28 µM | 11.1 µM | 5.98 µM | > 300 µM | Cc1cccc(-c2cc(C(=O)N/N=C/c3c(Cl)c4ccccc4oc3=O)nn2-c2ccc(S(N)(=O)=O)cc2)c1 | 199 µM | – | –
14.3 µM | > 100 µM | 6.41 µM | 2.85 µM | 5.94 µM | 108 µM | NS(=O)(=O)c1ccc(-n2nc(C(=O)N/N=C/c3c(Cl)c4ccccc4oc3=O)cc2-c2ccccc2F)cc1 | 148 µM | – | –
26.4 µM | > 100 µM | 21.3 µM | 12.4 µM | 18.2 µM | 139 µM | NS(=O)(=O)c1ccc(-n2nc(C(=O)N/N=C/c3c(Cl)c4ccccc4oc3=O)cc2-c2ccc(O)cc2)cc1 | 163 µM | – | –
22.4 µM | > 100 µM | 9.58 µM | 7.58 µM | 15.7 µM | 107 µM | COc1cccc(-c2cc(C(=O)N/N=C/c3c(Cl)c4ccccc4oc3=O)nn2-c2ccc(S(N)(=O)=O)cc2)c1 | 105 µM | – | –
